According to publication PMC5540250, “Influence of the Number of Axial Bexarotene Ligands on the Cytotoxicity of Pt(IV) Analogs of Oxaliplatin” (Bioinorganic Chemistry and Applications, 2017):
Like-named read-outs stand apart in the source and are kept apart here.

Tests used:
[1] = test system: colon carcinoma SW480 cells; test: MTT cytotoxicity test, 72 h, SW480; type: cell-based, human; conditions: mean ± standard deviation from 3 independent experiments
Procedure: (§1) The MCF7, MCF7D (gift of N. I. Moiseeva), HaCat, A549, and SW480 cell lines were cultured in Dulbecco modified Eagle's medium (DMEM; PanEco, Russia) with 10% fetal bovine serum (HyClone, USA) and antibiotics (PanEco, Russia) in 5% CO2, 37°C. The compounds were predissolved at 20 mM in dimethyl sulfoxide (DMSO) and added to the cell culture at the required concentration with maximum DMSO content of 0.5 v/v%. Cells in 96-well plates (7 × 10^3 cells/well) were treated with various concentrations of 3, 4, cisplatin, or bexarotene at 37°C for 72 h. Cell viability was determined using the MTT assay as follows: cells were incubated at 37°C for 4 h with 20 μl of 5 mg/ml solution of 3-(4,5-dimethylthiazol-2-yl)-2,5 diphenyltetrazolium bromide (Sigma-Aldrich, St. Louis, USA). The supernatant was discarded and formazan was dissolved in 150 μl of DMSO. The optical density of the solution was measured at 550 nm on a multiwell plate reader (Multiskan FC, Thermo Fisher Scientific, USA). The percentage of viable (i.e., MTT converting) cells was calculated from the absorbance of untreated cells (100%). Each experiment was repeated three times, and each concentration was tested in three replicates.
(§2) The cytotoxicity of complexes 3 and 4, bexarotene, and cisplatin was evaluated in the human MCF7 breast cancer cell line and its doxorubicin/cisplatin resistant subline MCF7D, as well as against colon carcinoma SW480 cells, non-small cell lung carcinoma A549, and immortalized human nonmalignant keratinocyte HaCat cell line using the colorimetric MTT-test after 72 h of incubation (Table 1). The cytotoxic potency of oxaliplatin, the Pt(II) precursor of the new complexes, was taken from literature.

[2] = test system: non-small cell lung carcinoma A549; test: MTT cytotoxicity test, 72 h, A549; type: cell-based, human; conditions: A549 cells, mean ± standard deviation from 3 independent experiments
Procedure: as §1, §2

[3] = test system: human MCF7 breast cancer cell line; test: MTT cytotoxicity test, 72 h, MCF7; type: cell-based; conditions: MCF7 cells, mean ± standard deviation from 3 independent experiments
Procedure: as §1, §2

[4] = test system: doxorubicin/cisplatin resistant subline MCF7D; test: MTT cytotoxicity test, 72 h, MCF7D; type: cell-based, human; conditions: MCF7D cells (doxorubicin/cisplatin resistant), mean ± standard deviation from 3 independent experiments
Procedure: as §1, §2

[5] = test system: immortalized human nonmalignant keratinocyte HaCat cell line; test: MTT cytotoxicity test, 72 h, HaCat; type: cell-based; conditions: HaCat nonmalignant keratinocytes, mean ± standard deviation from 3 independent experiments
Procedure: as §1, §2

[6] = test system: colon carcinoma SW480 cells; parameters: method as in PMID 22331606; conditions: taken from literature; cited from earlier work
[7] = test system: non-small cell lung carcinoma A549; parameters: method as in PMID 22331606; conditions: A549 cells; taken from literature; cited from earlier work
[8] = test system: human MCF7 breast cancer cell line; parameters: method as in PMID 22213516; conditions: MCF7 cells; taken from literature; cited from earlier work

Compound	IC50 [1] [µM]	IC50 [2] [µM]	IC50 [3] [µM]	IC50 [4] [µM]	IC50 [5] [µM]	other results
N.N.[Cl][Pt][Cl] [Cisplatin]	14 ± 4.4	29 ± 10	14 ± 7	75 ± 5.8	30 ± 10	–
(OC-6-44)-acetato(trans-1R,2R-Diamineocyclohexane)-4-(1-(3,5,5,8,8-pentamethyl-5,6,7,8-tetrahydro-2-naphthyl)vinyl)benzoato)oxalatoplatinum(IV) [Complex 4]	11 ± 1.6	10 ± 1	0.47 ± 0.07	4.8 ± 0.5	8 ± 1.3	IC50 MCF7 [3]: submicromolar range
(OC-6-33)-(trans-1R,2R-Diaminocyclohexane)-bis(4-(1-(3,5,5,8,8-pentamethyl-5,6,7,8-tetrahydro-2-naphthyl)vinyl)benzoato)oxalatoplatinum(IV) [Complex 3]	> 100	83 ± 16	> 100	> 100	> 100	–
O=C(O)C(=O)O.[NH-][C@@H]1CCCC[C@H]1[NH-].[Pt+2] [Oxaliplatin]	–	–	–	–	–	IC50 [6]: 0.9 ± 0.3 µM; IC50 [7]: 11.5 ± 3.9 µM; IC50 [8]: 43.8 µM
C=C(c1ccc(C(=O)O)cc1)c1cc2c(cc1C)C(C)(C)CCC2(C)C [Bexarotene, 4-(1-(3,5,5,8,8-pentamethyl-5,6,7,8-tetrahydro-2-naphthyl)vinyl)benzoic acid]	–	–	–	–	–	IC50 ([1]; Homo sapiens): 80 ± 10 µM; IC50 ([2]; Homo sapiens): 85 ± 9 µM; IC50 ([3]; Homo sapiens): 67 ± 13 µM; IC50 ([4]; Homo sapiens): 71 ± 21 µM; IC50 ([5]; Homo sapiens): > 90 µM
